Test results from BindingDB's records for doi:10.7270/Q2K072QS (Burnham Center For Chemical Genomics, 2010).

The compounds below were run against G-protein coupled receptor 35 (Homo sapiens, UniProt Q9HC97) (assay: GPR35 antagonists by imaging, SAR follow-up, selectivity assay for GPR55 agonist project, high-content imaging (AID 2338)). Details: not given.
G-protein coupled receptor 35, sequence (Q9HC97 whole entry): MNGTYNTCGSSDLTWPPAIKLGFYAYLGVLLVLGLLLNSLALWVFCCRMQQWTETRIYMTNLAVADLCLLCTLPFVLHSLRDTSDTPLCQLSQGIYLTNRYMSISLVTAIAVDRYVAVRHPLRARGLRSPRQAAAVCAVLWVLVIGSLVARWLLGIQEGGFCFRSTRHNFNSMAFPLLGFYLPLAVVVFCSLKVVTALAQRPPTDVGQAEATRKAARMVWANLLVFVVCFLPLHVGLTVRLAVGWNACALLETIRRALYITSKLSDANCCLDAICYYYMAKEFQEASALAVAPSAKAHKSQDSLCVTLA

Row | SMILES | IC50
1 | COc1cc2c(cc1NC(=O)CSc1ccccc1)oc1ccccc12 [MLS000579482] | > 32 µM
2 | COc1ccc2c(c1)cc(C)c1nnc(SCC(=O)N(C)c3nc(-c4ccccc4)cs3)n12 [MLS-0102574.0001] | > 32 µM
3 | CC(C)Oc1ccc(S(=O)(=O)N2CCOCC2)cc1NC(=O)c1ccc(N2CCCC2=O)cc1 [N-(5-morpholin-4-ylsulfonyl-2-propan-2-yloxy-phenyl)-4-(2-oxidanylidenepyrrolidin-1-yl)benzamide] | > 32 µM
4 | COc1ccc(S(=O)(=O)N2CCOCC2)cc1NC(=O)c1cc2c(s1)CCCC2 [N-[2-methoxy-5-(4-morpholinylsulfonyl)phenyl]-4,5,6,7-tetrahydro-1-benzothiophene-2-carboxamide] | > 32 µM
5 | COc1ccc2cc(C)c3nnc(SCC(=O)Nc4nc(-c5ccc(F)cc5)cs4)n3c2c1 [N-[4-(4-fluorophenyl)-1,3-thiazol-2-yl]-2-[(8-methoxy-4-methyl-[1,2,4]triazolo[4,3-a]quinolin-1-yl)sulfanyl]ethanamide] | > 32 µM
6 | COc1ccc(-c2csc(NC(=O)CSc3nnc4c(C)cc5ccccc5n34)n2)cc1 [N-[4-(4-methoxyphenyl)-1,3-thiazol-2-yl]-2-[(4-methyl-[1,2,4]triazolo[4,3-a]quinolin-1-yl)sulfanyl]ethanamide] | > 32 µM
7 | O=C(CSc1nc2ccccc2s1)N1c2ccccc2Sc2ccc(Cl)cc21 [SMR000198068] | > 32 µM
8 | CC(C)NS(=O)(=O)c1ccc(NC(=S)NC(=O)c2ccc(-c3ccccc3)cc2)cc1 [SMR000200853] | > 32 µM
9 | CC(Sc1nc2cc(Cl)ccc2s1)C(=O)Nc1cccc(S(=O)(=O)N2CCOCC2)c1 (stereo unspecified) [SMR000243093] | > 32 µM
10 | CN(C)S(=O)(=O)c1ccc(N2CCCC2)c(C(=O)N2CCN(c3ccc([N+](=O)[O-])cc3)CC2)c1 [SMR000370611] | > 32 µM

Other lines, results leading:

Row | IC50 | SMILES
11 | > 32 µM | C=CCN(CC=C)S(=O)(=O)c1ccc(NC(=S)NC(=O)c2ccc(-c3ccccc3)cc2)cc1
12 | > 32 µM | COc1ccccc1C=CC(=O)NC(=S)Nc1ccc(S(=O)(=O)N(C)c2ccccc2)cc1
13 | > 32 µM | O=C(CSc1nc2ccccc2s1)N1c2ccccc2Sc2ccc(C(F)(F)F)cc21
14 | > 32 µM | Cc1cccc(N2CCN(C(=O)c3cc(S(=O)(=O)N(C)C)ccc3N3CCCC3)CC2)c1C
15 | > 32 µM | CCCN(CCC)Cc1c(C(=O)NN=Cc2c[nH]c3ccccc23)nnn1-c1nonc1N
16 | > 32 µM | C/C(C=NNC(=O)c1nnn(-c2nonc2N)c1CN1CCC(C)CC1)=C/c1ccccc1
17 | > 32 µM | CCCN(CCC)Cc1c(C(=O)NN=C/C(C)=C\c2ccccc2)nnn1-c1nonc1N [1-(4-azanyl-1,2,5-oxadiazol-3-yl)-5-[(dipropylamino)methyl]-N-[[(Z)-2-methyl-3-phenyl-prop-2-enylidene]amino]-1,2,3-triazole-4-carboxamide]
18 | > 32 µM | COc1cc2c(cc1NC(=O)C(C)Sc1ccc(NC(C)=O)cc1)oc1ccccc12 (stereo unspecified) [2-[(4-acetamidophenyl)thio]-N-(2-methoxy-3-dibenzofuranyl)propanamide]
19 | > 32 µM | Cc1occc1C(=O)Nc1ccc(OCc2ccccc2)cc1 [2-methyl-N-(4-phenylmethoxyphenyl)furan-3-carboxamide]
20 | > 32 µM | CC(C)=CC(=O)Nc1ccc(OCc2ccccc2)cc1 [3-methyl-N-(4-phenylmethoxyphenyl)but-2-enamide]

Same assay, conditions: inactive by the depositor's call

Row | IC50 | SMILES
21 | 24.4 µM | CCCN(CCC)Cc1c(C(=O)NN=C/C(C)=C\c2ccco2)nnn1-c1nonc1N [1-(4-azanyl-1,2,5-oxadiazol-3-yl)-5-[(dipropylamino)methyl]-N-[[(Z)-3-(furan-2-yl)-2-methyl-prop-2-enylidene]amino]-1,2,3-triazole-4-carboxamide]
